The values below come from article PMC10048662, “Whole-Cell Biocatalytic Production of Acetoin with an aldC-Overexpressing Lactococcus lactis Using Soybean as Substrate” (Foods, 2023).

The structures appear in SMILES notation.

The test concerns the target T1, ALDC (α-acetolactate decarboxylase, aldC) (Lactiplantibacillus plantarum, UniProt F9UPY7).
T1 construct: gene aldB; expressed in Lactococcus lactis NZ9000 from pNZ8048, crude lysate supernatant; ALDC described as dimer
The test is described as follows: acetoin formation, creatine/α-naphthol colour reaction at […] nm. It is filed as biochemical. The following applies: crude lysate supernatant of nisin-induced cells; 30 °C, 20 min; uninduced cells as comparison.

T1 sequence (F9UPY7 entry or part of it): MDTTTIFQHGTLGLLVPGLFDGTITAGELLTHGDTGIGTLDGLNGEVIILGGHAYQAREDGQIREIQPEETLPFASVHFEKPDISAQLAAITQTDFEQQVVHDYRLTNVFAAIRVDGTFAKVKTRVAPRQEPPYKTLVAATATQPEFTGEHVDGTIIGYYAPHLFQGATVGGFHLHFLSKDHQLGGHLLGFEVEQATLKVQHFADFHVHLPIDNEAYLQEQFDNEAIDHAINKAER

Turning to `CC(=O)C(C)(O)C(=O)O` (racemic) [α-acetolactate], the “acetoin formation, creatine/α-naphthol colour reaction at 522 nm” value is listed as “the expressed ALDC can efficiently convert α-acetolactate to acetoin”.
